Active and inactive are the calls of the source. No cut-off for these calls is given here.
Key:
Pteridine reductase 1 = target: T1, Pteridine reductase 1 (Leishmania major, UniProt Q01782); test: Inhibition of Leishmania major PTR1 using biopterin as substrate and NADPH as cofactor by spectrofluorimetric method
T1 sequence (Q01782 whole entry): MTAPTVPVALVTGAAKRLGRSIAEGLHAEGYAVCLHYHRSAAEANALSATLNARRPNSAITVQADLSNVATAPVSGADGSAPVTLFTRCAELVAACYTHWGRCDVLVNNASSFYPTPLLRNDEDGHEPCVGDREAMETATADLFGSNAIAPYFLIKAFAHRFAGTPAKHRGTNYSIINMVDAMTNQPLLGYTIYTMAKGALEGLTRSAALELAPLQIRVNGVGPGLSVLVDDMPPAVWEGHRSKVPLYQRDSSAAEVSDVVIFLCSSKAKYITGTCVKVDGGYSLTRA

[1] = target: T2, Pteridine reductase 1 (Leishmania major) (UniProt Q01782); test: Binding affinity to Leishmania major PTR1 BL21(DE3) assessed as change in melting temperature at 50 uM by SYPRO orange dye based RT-PCR analysis
T2 sequence (whole entry): T1 sequence (Q01782 whole entry)

[2] = target: T2, Pteridine reductase 1 (Leishmania major); test: Competitive inhibition of Leishmania major PTR1 assessed as decrease in thermal shift stabilization at 1 mM in presence of varying levels of biopterin and constant NADPH level by spectrofluorimetric method
[3] = target: T2, Pteridine reductase 1 (Leishmania major); test: Inhibition of Leishmania major PTR1 at 50 uM using biopterin as substrate and NADPH as cofactor by spectrofluorimetric method relative to control
[4] = target: T2, Pteridine reductase 1 (Leishmania major); test: Binding affinity to Leishmania major PTR1 BL21(DE3) assessed as change in melting temperature by SYPRO orange dye based RT-PCR analysis
[5] = target: T2, Pteridine reductase 1 (Leishmania major); test: Competitive inhibition of Leishmania major PTR1 assessed as decrease in thermal shift stabilization at 1 mM in presence of saturating concentration of biopterin and varying levels of NADPH by spectrofluorimetric method
[6] = target: T2, Pteridine reductase 1 (Leishmania major); test: Noncompetitive inhibition of Leishmania major PTR1 at 1 mM in presence of varying levels of biopterin and constant NADPH level by spectrofluorimetric method
[7] = target: T2, Pteridine reductase 1 (Leishmania major); test: Noncompetitive inhibition of Leishmania major PTR1 at 1 mM in presence of saturating concentration of biopterin and varying levels of NADPH by spectrofluorimetric method

**Q.** Which IC50 (Pteridine reductase 1) does the source give for `Cc1sc2ncnc(N/N=C/c3ccccc3)c2c1C` here?
**A.** 32.3 µM

**Q.** And the ΔTm [1]?
**A.** 1.02 °C

**Q.** And the inhibition [2]?
**A.** Active

**Q.** And the inhibition [3]?
**A.** > 50%

**Q.** What about the Activity [4] of the same compound?
**A.** Dose-dependent effect

**Q.** What about the inhibition [5] of the same compound?
**A.** Active

**Q.** How did the ΔTm [1] turn out when `CC(N(C)Cc1nc2ccccc2c(=O)[nH]1)C(C)(C)C` (stereo not given) was run?
**A.** 0.91 °C

**Q.** What about the inhibition [6] of the same compound?
**A.** Active

**Q.** What about the inhibition [7] of the same compound?
**A.** Active

**Q.** And the Activity [4]?
**A.** Dose-dependent effect

Reference: ChEMBL document CHEMBL4024726, “An integrated approach towards the discovery of novel non-nucleoside Leishmania major pteridine reductase 1 inhibitors” (Eur J Med Chem, 2017)
